From PubChem BioAssay AID602191 (Broad Institute, 2012) come the findings set out here.

The test concerns the target Scavenger receptor class B member 1 (Mus musculus) (UniProt Q61009). The experiment in a line: activators of SR-BI-mediated HDL uptake, dose response, cell-based, ldlA[mSR-BI] CHO, DiI fluorescence, cherry-pick (AID 602191).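 For AC40: potency of activators raising HDL uptake.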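 For activation (HDL uptake increase): 0% = median of DMSO wells and 100% = twice the DMSO signal.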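 For all read-outs here: cell fluorescence from internalized DiI-labeled HDL after washing.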 As to conditions: ldlA[mSR-BI] CHO cells, 3 h; for activation (HDL uptake increase): at 35 µM (top of the series).

Activity calls are given as the source filed them.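 Rule for the calls: active = fitted curve reaches 40% activation at a concentration no higher than the top valid tested dose; inconclusive = flat fit between 30% and 70% activation, or poor fit; inactive = uptake decrease, flat fit within 30% of zero, the rest.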 A value given as a limit tells only on which side of the number the result lay.

Sequence of Scavenger receptor class B member 1 (Mus musculus) (Q61009 whole entry, looked up): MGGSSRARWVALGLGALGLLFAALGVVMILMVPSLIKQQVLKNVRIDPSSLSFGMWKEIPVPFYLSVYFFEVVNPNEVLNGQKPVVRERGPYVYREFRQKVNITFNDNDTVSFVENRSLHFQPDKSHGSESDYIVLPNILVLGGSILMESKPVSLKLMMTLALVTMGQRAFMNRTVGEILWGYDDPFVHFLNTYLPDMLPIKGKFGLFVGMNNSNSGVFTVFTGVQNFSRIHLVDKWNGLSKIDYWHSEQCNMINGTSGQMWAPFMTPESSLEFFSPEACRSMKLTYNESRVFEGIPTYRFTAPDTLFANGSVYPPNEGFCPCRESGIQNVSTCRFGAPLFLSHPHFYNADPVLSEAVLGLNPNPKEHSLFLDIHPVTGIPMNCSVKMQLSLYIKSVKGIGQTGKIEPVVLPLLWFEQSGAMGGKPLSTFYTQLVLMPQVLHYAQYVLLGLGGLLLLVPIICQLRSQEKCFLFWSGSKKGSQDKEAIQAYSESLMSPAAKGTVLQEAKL

Consider `COc1ccc(CN(C(=O)c2cnccn2)C(C(=O)Nc2ccc(F)cc2)c2ccccc2)cc1` (stereo unspecified), for which the activation (HDL uptake increase) is -4.64% (inactive).

Regarding `O=C(O)CCc1nnc(SCC(=O)Nc2ccc(Br)cc2)[nH]c1=O`, the activation (HDL uptake increase) was -2.46% (inactive).

`CC1(C)NC(=O)N(CC(=O)N2CCN(S(=O)(=O)c3ccccc3C(F)(F)F)CC2)C1=O`: the activation (HDL uptake increase) was -6.43% (inactive).

On to `COC(=O)C1(C)NC(c2ccccc2OC)C2C(=O)N(c3ccccc3)C(=O)C21` (stereo unspecified), for which the activation (HDL uptake increase) was 7.27% (inactive). On the same count and under the same terms, the result for `O=C(NCc1cnn(-c2ccccc2)c1)C1CCC(=O)N(C2CC2)C1` (stereo unspecified) reads -6.78% (inactive); that for `CC(=O)N1CCN(S(=O)(=O)c2cccc(C(=O)Nc3cc(C(F)(F)F)ccc3N3CCOCC3)c2)CC1`, -3.42% (inactive).

For `CCN(CC(=O)Nc1ccc(OC)cc1)C(=O)c1ccc(=O)n(Cc2ccccc2)n1`, the activation (HDL uptake increase) is -12.4% (inactive). Still for that read-out and setting: with `COc1ccc(CCN2CC(C(=O)NCc3cnn(C(C)C)c3)CCC2=O)cc1` (stereo unspecified) the figure was -1.83% (inactive); with `O=C1CCC(C(=O)N2CCCCCCC2)CN1Cc1cccc(C(F)(F)F)c1` (stereo unspecified), -0.452% (inactive); with `CCC(C)[C@@H](C(=O)NCC1CCC(C(=O)O)CC1)n1nnc2ccccc2c1=O` (stereo partly specified), -5.54% (inactive).

In the case of `CSc1ccc(S(=O)(=O)NCC(=O)OCC(=O)N(C)Cc2ccccc2)cc1[N+](=O)[O-]`, the activation (HDL uptake increase) is 4.31% (inactive). As for `COc1ccc(OC)c(S(=O)(=O)NCCCN2CCCC2=O)c1`, the AC40 is > 35 µM (inactive). As to `O=C(N1CCN(S(=O)(=O)c2ccc(Cl)cc2)CC1)n1ccnc1`, the activation (HDL uptake increase) is -2.88% (inactive). On the same count and under the same terms, the result for `Cn1c(C(=O)N2CCC(C(N)=O)CC2)cc2cc(Cl)ccc21` reads -7.74% (inactive).

For `CC(C)C[C@H]1CNC(=S)N1CC1CCCN1C[C@H](Cc1ccccc1)N1C[C@H](Cc2ccc(O)cc2)N(CC2CCCCC2)C1=S` (stereo partly specified), the activation (HDL uptake increase) is -0.934% (inactive).

Consider `OC(Cc1ccccc1)(c1ccccc1)C1CN2CCC1CC2` (stereo unspecified), for which the activation (HDL uptake increase) is -3.56% (inactive). Still for that read-out and setting: the result for `O=C(CNC(=O)c1ccco1)NCCCc1ccccc1` reads -5.97% (inactive); that for `CN1CCN(CCC(=O)Nc2ccccc2Cl)CC1`, -8.52% (inactive). For the molecule `O=C(NNC(=S)Nc1cccc2ccccc12)c1cccc(Br)c1`, the activation (HDL uptake increase) is -30.7% (inactive). With `O=C(NNC(=O)C1CC(c2cccnc2)=NO1)Nc1cccc(F)c1` (stereo unspecified), the activation (HDL uptake increase) is -5.33% (inactive). Same read-out and setting: the result for `Cc1ccc(O)c(NC(=S)NC(=O)c2ccc(-c3ccc(Cl)cc3)o2)c1` reads -9.38% (inactive); that for `C/C(=N\N1C(=O)c2ccccc2NC1c1ccco1)c1ccccc1O` (stereo unspecified), -54.6% (inactive). Still for that read-out and setting: the result for `COC(=O)Cc1csc(Nc2ccccc2)n1` reads 0.176% (inactive); that for `CC(C)(C)SCCNC(=O)c1ccc(Cl)c([N+](=O)[O-])c1`, -10.4% (inactive); that for `COc1ccc(C(=O)NC(=O)CSc2nc3nc(C)cc(C)n3n2)cc1`, -8.5% (inactive). Still for that read-out and setting: with `O=C(COC(=O)c1cccs1)Nc1cccc(Cl)c1` the figure was -3.43% (inactive). As for `CCc1cccc(N(C(=O)c2csnn2)C(C(=O)NC2CCCC2)c2cccnc2)c1` (stereo unspecified), the activation (HDL uptake increase) was 6.32% (inactive).

In the case of `CC(C)C[C@@H](CN1CCCC1CN1C(=S)NC[C@@H]1Cc1ccc(O)cc1)N1C[C@H](Cc2ccc(O)cc2)N(CCc2ccccc2)C1=S` (stereo partly specified), the activation (HDL uptake increase) was 39.2% (inactive).

For `CC(C)(C)NC(=O)C[C@H]1C[C@H](C(=O)N2CCOCC2)[C@@]2(CCC3CCCC3)c3[nH]c4ccc(Cl)cc4c3CCN2C1=O`, the AC40 is > 35 µM (inactive). On to `O=C(CCCc1nc2ccccc2s1)NCc1ccccc1`, for which the activation (HDL uptake increase) was -3.71% (inactive). Still for that read-out and setting: with `COc1ccc(C(C(=O)NC2CCCCC2)N(C(=O)CCl)c2ccc(C)cc2)cc1` (stereo unspecified) the figure was -7.32% (inactive). Same read-out and setting: the result for `CCOC(=O)C1CCCN(S(=O)(=O)c2ccc(S(=O)(=O)N3CCCC3)cc2)C1` (stereo unspecified) reads -3.5% (inactive); that for `CCCN1CCC(NC(=O)C2CCCCC2C(=O)O)CC1` (stereo unspecified), -8.02% (inactive). `CC(C)COC(=O)Cc1c(O)c2ccccc2[nH]c1=O`: the activation (HDL uptake increase) is -2.53% (inactive). On the same count and under the same terms, the result for `Cc1ccc(C(=O)NCCCN2CCOCC2)cc1S(=O)(=O)N1CCCCC1` reads 9.53% (inactive); that for `COc1ccc2cnnc(SCC(=O)Nc3ccc(C(C)=O)cc3)c2c1OC`, -18.2% (inactive); that for `COc1ccccc1N(CC(=O)Nc1cc(C)on1)S(=O)(=O)c1cccc(C(F)(F)F)c1`, 1.11% (inactive).

Regarding `O=C(COC(=O)COc1ccccc1)NCCC1=CCCCC1`, the activation (HDL uptake increase) was 2.72% (inactive). The same measure, in the same setting: the result for `CCOc1ccc(CNC(=O)CCS(=O)(=O)c2ccc3c(c2)oc(=O)n3C)cc1` reads 8.83% (inactive); that for `C=CCC[C@@H](Cc1ccc(F)cc1)C(=O)OC[C@@H](Cc1c[nH]c2ccccc12)NC(=O)[C@@H](CC=C)CC(=O)N[C@@H](CO)Cc1ccccc1`, 47.8% (inactive). Regarding `O=C(NC1CCCCCC1)C1c2ccccc2C(=O)N1CCCN1CCOCC1` (stereo unspecified), the activation (HDL uptake increase) is -1.53% (inactive). On the same count and under the same terms, with `O=C(c1ccc(CS(=O)Cc2ccccc2Cl)o1)N1CCN(C2CCCCC2)CC1` (stereo unspecified) the figure was 2.09% (inactive); with `Cc1cc(C)nc(SCC(=O)OC(C)C(=O)Nc2ccccc2)n1` (stereo unspecified), -8.43% (inactive). Turning to `O=C(CC1NC(=O)NC1=O)Nc1ccc(Cl)cc1` (stereo unspecified), the AC40 was > 35 µM (inactive). On to `CN1CCN(S(=O)(=O)c2cccc(C(=O)NC3(C)CCS(=O)(=O)C3)c2)CC1` (stereo unspecified), for which the activation (HDL uptake increase) is -5.92% (inactive). Same read-out and setting: with `Cc1[nH]c2ccccc2c1C(=O)CSC(=S)N(C)C1CCCCC1` the figure was -5.9% (inactive).

For the molecule `CCN(CC)CCCNC(CC(=O)Nc1cccc([N+](=O)[O-])c1)C(=O)O` (stereo unspecified), the activation (HDL uptake increase) is -2.51% (inactive). For the molecule `COc1ccc(-n2nc3c(c2NC(=O)c2ccc(S(=O)(=O)N4CCOCC4)cc2)CS(=O)C3)cc1` (stereo unspecified), the activation (HDL uptake increase) was -10.8% (inactive). `COc1ccccc1NC(=O)CCC(=O)OCc1cccc([N+](=O)[O-])c1`: the activation (HDL uptake increase) is -10.7% (inactive). Consider `CC(C)c1ccc(OCC(=O)NCCO)cc1`, for which the activation (HDL uptake increase) was 1.48% (inactive). On to `O=C(Nc1ccc(S(=O)(=O)Nc2ccccc2F)cc1)N1CCCCC1`, for which the activation (HDL uptake increase) was -17.5% (inactive). Same read-out and setting: the result for `Cc1cccc(CCNS(=O)(=O)c2ccc3c(c2)NC(=O)CO3)c1` reads 11.6% (inactive); that for `Cc1nc(CCNC(=O)Cc2ccc(Cl)cc2)cs1`, -4.62% (inactive); that for `O=C1N(C2CCCC2)C[C@@H]2C[C@@H](c3cn[nH]c3-c3ccc(Cl)cc3)N3CCC[C@@]123`, 0.818% (inactive).

For the molecule `COCCn1c(=O)[nH]c2cc(C(=O)N3CCN(c4ccccc4OC)CC3)ccc2c1=O`, the activation (HDL uptake increase) is -12.6% (inactive). In the case of `O=C(O)C1CCN(Cc2cnn(-c3ccccc3)c2-n2cccc2)CC1`, the activation (HDL uptake increase) was 6.93% (inactive).

`Cn1cc(CN2CCC(O)CC2)c(-c2ccc(Oc3ccccc3)cc2)n1`: the activation (HDL uptake increase) was -5.7% (inactive). Regarding `FC(F)(F)c1ccc(C2[C@H]3CN(Cc4cccnc4)[C@H](c4ccccc4)C34CC2(c2cccnc2)C4)cc1` (stereo partly specified), the AC40 is > 35 µM (inactive). With `CC1CCN(S(=O)(=O)c2ccc3c(c2)c(=O)c(C(=O)N2CCCCC2)cn3C)CC1`, the activation (HDL uptake increase) was -8.34% (inactive). On to `COc1ccc(C(C(=O)NC2CCCCC2)N(C(=O)CCl)c2ccccc2Cl)cc1` (stereo unspecified), for which the activation (HDL uptake increase) was -7.36% (inactive).

On to `CC(C)C(C)(C#N)NC(=O)CSc1nnc(C(F)(F)F)n1C` (stereo unspecified), for which the activation (HDL uptake increase) was -5.69% (inactive). `COCCNC(=O)C1(C)C=CC2(CCCCC2)N1C(=O)c1ccccc1` (stereo unspecified): the activation (HDL uptake increase) is 3.23% (inactive). Same read-out and setting: with `C=CCn1c(C(CCC(C)C)CC(C)(C)O)n[nH]c1=S` (stereo unspecified) the figure was 7.72% (inactive); with `Cc1ccc(NC(=O)CSCC(N)=O)cc1C`, -9.19% (inactive). Still for that read-out and setting: the result for `Cc1noc(/C=C/N(C)C)c1S(=O)(=O)N1CCCC(C(=O)NCc2ccco2)C1` (stereo unspecified) reads -1.39% (inactive); that for `CC(C(=O)NCCS(=O)(=O)c1ccc(Br)cc1)S(=O)(=O)c1ccc(Cl)cc1` (stereo unspecified), 11.1% (inactive); that for `O=C(O)CCn1cc(/C=C/C(=O)c2ccc(Cl)cc2)c(-c2ccc(Br)cc2)n1`, -9.53% (inactive).

On to `CCS(=O)(=O)c1nc(S(=O)(=O)c2ccc(C)cc2)c(N2CCC(C)CC2)s1`, for which the activation (HDL uptake increase) is -8.15% (inactive).

In the case of `COc1ccc(N2CCN(C(=O)NC(=O)c3ccc(Cl)cc3)CC2)cc1`, the activation (HDL uptake increase) was -6.64% (inactive). In the case of `CCOC(=O)C1CCCN(C(=O)CS(=O)(=O)Cc2ccccc2)C1` (stereo unspecified), the activation (HDL uptake increase) was 7.75% (inactive). Regarding `CC(C)N1CCc2[nH]c(=S)[nH]c(=O)c2C1`, the activation (HDL uptake increase) was -0.502% (inactive). In the case of `CSCCC(NC(=O)c1ccco1)C(=O)NCc1ccc(F)cc1` (stereo unspecified), the activation (HDL uptake increase) was -8.99% (inactive).

As to `CN(C)CCCNC(=O)Cc1ccc(Br)cc1`, the activation (HDL uptake increase) is 0.791% (inactive).

With `COc1ccc(CCNS(=O)(=O)c2cn(C)c(=O)n(C)c2=O)cc1OC`, the activation (HDL uptake increase) was -3.3% (inactive).

Regarding `O=C(Cn1c(=O)cnc2ccccc21)NNC(=O)c1ccc(Cl)cc1`, the activation (HDL uptake increase) is -5.85% (inactive). The same measure, in the same setting: the result for `O=C(CCCCCN1C(=O)c2ccccc2C1=O)Nc1ccc(C(=O)O)cc1` reads -6.25% (inactive).
